{
  "source": "patent US20110251135A1",
  "about": "“INHIBITORS OF PERITONEAL SEEDING OF CANCER CELLS” (University of Utah Research Foundation, priority 2008, published 2011)",
  "key": {"JNK": {"tested_on": "JNK", "assay": "JNK activity (phosphorylation of c-JUN) in colon and pancreatic cancer cell lines", "assay_type": "cell-based, human"}, "FLIP": {"tested_on": "FLIP", "assay": "FLIP expression in pancreatic and colon cancer cell lines", "assay_type": "cell-based, human", "settings": "anisomycin 1.5 and 4 hours", "description": "In order to determine the role of JNK activity in FLIP downregulation, pancreatic and colon cancer cell lines were treated with anisomycin for 1.5 and 4 hours."}, "[1]": {"tested_on": "colon and pancreatic cancer cells", "assay": "Apoptosis of colon and pancreatic cancer cells during readhesion", "assay_type": "cell-based, human"}, "HT-29 cells [2]": {"tested_on": "HT-29 cells", "assay": "Cell survival and readhesion assay (crystal violet)", "assay_type": "cell-based, human", "settings": "HT-29 (overexpress PPARγ); 30 μM GW 9662", "source_text": "(§1) Untreated adherent monolayers (Control) and Jurkat cells treated with TNFα (Jurkat Control) served as controls. The cells were collected and analyzed for NF-κB activation in an ELISA (see Methods). […] The floating and readherent cells were collected and lysed. Aliquots of the cell lysates were used to generate cleaved PARP immunoblots. All lanes contain equal total protein concentrations and the actin blot served as a loading control. The blots shown are typical of duplicate experiments. […] The floating cells were washed away and the adherent cells were then fixed and stained with crystal violet. The cells were lysed in deoxycholate and the intensity of the staining quantified by spectrophotometry. The results are normalized to the controls.\n(§2) FIGS. 13A-B show transiently suspended Su.86 (PPARγ-negative) and HT-29 (PPARγ-positive) cancer cells were allowed to readhere in the presence of various concentrations of ciglitazone for 8 hours. The cells were also incubated with or without the irreversible PPARγ inhibitor GW9662 during readhesion. The floating cells were washed away and the adherent cells were then fixed and stained with crystal violet. The cells were lysed in deoxycholate and the intensity of the staining quantified by spectrophotometry. The results are normalized to the controls. […]"}, "Su.86 cells": {"tested_on": "Su.86 cells", "assay": "Cell survival and readhesion assay (crystal violet)", "assay_type": "cell-based, human", "settings": "Su.86 (lack PPARγ); 30 μM GW 9662", "source_text": "as §1, §2"}, "adherent HT-29 cells": {"tested_on": "adherent HT-29 cells", "assay": "Annexin V-FITC apoptosis assay, adherent cells", "assay_type": "cell-based, human", "settings": "adherent HT-29; 24 hours; BAY compounds at doses up to 20, MG-132 20 μM", "source_text": "FIG. 3 is a group of graphs that show NF-κB inhibitors cause apoptosis of colon cancer cells. […] The data points represent the average percent of annexin V-positive, propidium iodide-negative cells (of the total cells counted) from triplicate experiments. The error bars represent the standard error of the means. […] The results shown are a graphic representation of individual flow cytometry results expressed as the percentage of cells that were annexin V-positive of those that excluded propidium iodide. […] An immunoblot of the lysates for cleaved PARP was performed. Each lane represents equal total protein concentrations. […] The cells were allowed to adhere to plastic dishes for 1 hour after which they were washed gently in PBS and stained with crystal violet. The crystal violet stained cells were solubilized in deoxycholate and the absorbance detected in a spectrophotometer at 590 nm. The adherent cells were expressed as a fraction of the controls. Each data point represents the average of triplicate experiments and the error bars the standard errors of the means.\nThe data points represent the means of triplicate experiments and the error bars the standard errors of the means. […] The percent of apoptotic cells was then determined by the annexin V assay. […] The results shown are typical of two separate experiments. […] Immunoblots were performed for c-IAP-2, TRAF-1, TRAF-2, and FLIP. All lanes contain equal total protein.\n(§3) Single cell suspensions were plated at 100,000 cells per well in 24-well plates in media containing DMSO, BAY 11-7082, BAY 11-7085, or MG-132 for 8-24 hours in an incubator. Alternatively, DMSO, BAY 11-7082, BAY 11-7085, or MG-132 were added to cells that were confluent and adherent for several days. The nonadherent cells were aspirated off with the media and spun for 3 minutes at 2,000 rpm in 15 mL polypropylene tubes. The adherent cells were washed twice with PBS, dispersed in trypsin, and spun down for 3 minutes at 2,000 rpm in 15 mL polypropylene tubes. The nonadherent and adherent cells were resuspended in 1× binding buffer (10 mM HEPES/NaOH, pH 7.4, 140 mM NaCl, and 2.5 mM CaCl2) to a final concentration of 10^6 cells/mL. 100 μL of the cell solution were transferred to a 5 mL culture tube and incubated with 5 μL of annexin V-FITC-conjugated monoclonal antibody (Pharmingen) and 10 μl, of propidium iodide (from a 50 μg/mL stock solution made in PBS) in the dark at 25° C. for 15 minutes. 400 μL of binding buffer was added to each tube and the cells were analyzed by flow cytometry immediately. The percent of apoptosis was determined as the percent of annexin V-positive, propidium iodide-negative cells of the total cells counted."}, "[3]": {"tested_on": "transiently suspended HT-29 cells", "assay": "Apoptosis of transiently suspended cells during readhesion (annexin V assay)", "assay_type": "cell-based, human", "settings": "various concentrations, 4 hours; compared with BAY 11-7085", "description": "HT-29 cells that were either transiently suspended with trypsin-EDTA or adherent for three days, were treated at time zero with DMSO or 10-100 μM BAY 11-7085. The percent of apoptotic cells was determined using the annexin V flow cytometry assay and graphed versus the dose of BAY 11-7085. FIG. 4B are photographs showing DLD-1, FIG. 4C are photographs showing HCT-116, and FIG. 4D are photographs showing HT-29 cells that were transiently suspended in trypsin-EDTA and allowed to readhere to glass coverslips for 1-24 hours. The cells were fixed and immunostained with an NF-κB p65 subunit monoclonal antibody.\nThe transiently suspended cells were lysed and allowed to bind to DNA oligonucleotides, containing the NF-κB consensus binding site, that were immobilized to 96-well plates. NF-κB protein bound to the oligonucleotides was detected by an antibody to the p65 subunit that only recognized p65 that is bound to DNA. The positive control was HeLa cells that were stimulated with TNFα. A control was performed using excess free NF-κB oligonucleotides (Competitor). […] NF-κB binding activity was determined by the TransAM assay as in FIG. 5A. […] The data shown represent typical results of three separate experiments. […] An immunoblot for COX-2 was performed.\nThe percentage of apoptotic cells was determined using the annexin V assay. The data points represent the averages of three experiments; bars, +−.SE. E. DLD-1 and F. HT-29 cells were transduced with an adenovirus containing the IκB super-repressor construct. After 3 days, the cells were transiently suspended and allowed to readhere in the presence of subapoptotic concentrations of BAY 11-7085 or DMSO (vehicle) for 8 hours. The data are expressed as fractions of cells surviving compared with the controls (no adenovirus) and were quantitatively determined by staining the remaining adherent cells with crystal violet.\nas §3\nVarious concentrations of BAY 11-7085 were added to HT-29 cells that were transiently suspended in trypsin-PBS for approximately 15 minutes before replating. The transiently suspended cells were quickly allowed to readhere in order to prevent anoikis. Alternatively, BAY 11-7085 was added to adherent HT-29 cell monolayers."}, "HT-29 cells [4]": {"tested_on": "HT-29 cells", "assay": "Cleaved PARP immunoblot of adherent and nonadherent cells", "assay_type": "cell-based, human", "settings": "20 μM MG-132 for 8 h", "description": "The cells were washed twice in ice cold PBS and then lysed in 4° C. lysis buffer (50 mM HEPES, 150 mM NaCl, 1.5 mM MgCl2, 1 mM EGTA, 100 mM NaF, 10 mM Na2PO4, 1 mM Na3VO4, 10% glycerol, 1% TRITON™ X-100, and 1 μg/mL each of aprotinin, leupeptin, chymostatin, pepstatin) and clarified at 12,000 rpm at 4° C. for 15 minutes. The lysates were normalized for total protein concentration. Aliquots of the lysates were then mixed 1:1 in sample buffer (125 mM Tris-HCl (pH 6.8), 20% glycerol, 4% sodium dodecyl sulfate, 2% β-mercaptoethanol, 10 μg/mL bromophenol blue) and boiled for 3 minutes. The samples were loaded onto SDS-PAGE gels (7.5 or 10% acrylamide). The proteins were transferred to nitrocellulose from the gels and incubated in blocking buffer (1% bovine serum albumin (Bio-Rad), 100 mM Tris-Cl (pH 7.4), 0.9% NaCl, 0.1% Nonidet) overnight at 4° C.\n(§4) For immunodetection, the blocked blots were probed with primary antibody for 2 hours at 4° C. on a rocker. […] Alkaline phosphatase was detected by a colorimetric reaction using a BCIP (5-bromo-4-chloro-3-indolyl phosphate)/NBT (nitroblue tetrazolium) kit (Zymed).\nIt was confirmed in HT-29 cells that were treated with increasing concentrations of BAY 11-7085 for 24 h. After separating the HT-29 cells that remained adherent and those that became nonadherent after BAY 11-7085 treatment, the percentage of apoptotic cells was determined for each group. […]"}, "HCT-116 cells": {"tested_on": "HCT-116 cells", "assay": "Cleaved PARP immunoblot of adherent and non-adherent cells", "assay_type": "cell-based, human", "settings": "20 μM MG-132 for 24 hours", "source_text": "FIG. 3 is a group of graphs that show NF-κB inhibitors cause apoptosis of colon cancer cells. […] The data points represent the average percent of annexin V-positive, propidium iodide-negative cells (of the total cells counted) from triplicate experiments. The error bars represent the standard error of the means. […] The results shown are a graphic representation of individual flow cytometry results expressed as the percentage of cells that were annexin V-positive of those that excluded propidium iodide. […] An immunoblot of the lysates for cleaved PARP was performed. Each lane represents equal total protein concentrations. […] The cells were allowed to adhere to plastic dishes for 1 hour after which they were washed gently in PBS and stained with crystal violet. The crystal violet stained cells were solubilized in deoxycholate and the absorbance detected in a spectrophotometer at 590 nm. The adherent cells were expressed as a fraction of the controls. Each data point represents the average of triplicate experiments and the error bars the standard errors of the means. […]\nas §4"}, "[5]": {"settings": "humans; after a single or multiple oral doses; read-out: Cmax blood levels; cited from earlier work"}, "RANK": {"tested_on": "RANK", "assay": "NF-κB activation in colon cancer cell lines incubated with soluble RANK", "assay_type": "cell-based, human", "source_text": "Of other members of the TNF receptor superfamily, Receptor Activator of NF-κB (RANK) is highly expressed in the digestive tract. […] Thus, RANK appears to be important in the activation of NF-κB during colon cancer cell readhesion."}},
  "note": "Entries after “also recorded” stand apart in the source; their conditions may differ. Where a SMILES comes first, the peptide text is derived from it. The star is where a group is joined. Cbz = O=C(OCc1ccccc1)*",
  "data": [
    {"molecule": "COc1ccc(C[C@H]2NC[C@H](O)[C@H]2OC(C)=O)cc1", "note": "[anisomycin]", "values": [
      {"measurement": "JNK activity (phosphorylation of c-JUN)", "setting": "JNK", "value": "readily induced JNK activity"},
      {"measurement": "FLIP expression", "setting": "FLIP", "value": "caused a decrease in FLIP expression"},
      {"measurement": "apoptosis during cell readhesion", "setting": "[1]; colon and pancreatic cancer cell lines, anisomycin alone", "value": "not as effective as BAY 11-7085, anisomycin induced apoptosis"},
      {"measurement": "effect on pro-apoptotic activity of BAY 11-7085", "setting": "[1]; readhering colon and pancreatic cancer cells, anisomycin with BAY 11-7085", "value": "increased the pro-apoptotic activity of BAY 11-7085"}
    ]},
    {"molecule": "O=C(Nc1ccccc1)c1cc([N+](=O)[O-])ccc1Cl", "note": "[GW9662]", "values": [
      {"measurement": "effect of GW 9662 on the efficacy of ciglitazone", "setting": "HT-29 cells [2]", "value": "did not significantly affect the efficacy of ciglitazone"},
      {"measurement": "effect of GW 9662 on the efficacy of ciglitazone", "setting": "Su.86 cells", "value": "did not significantly affect the efficacy of ciglitazone"},
      {"measurement": "effect of GW9662 on the pro-apoptotic activity of pioglitazone", "setting": "[1]; cancer cell readhesion", "value": "failed to inhibit the pro-apoptotic activity of pioglitazone"}
    ]},
    {"molecule": "CC(C)C[C@@H](C=O)NC(=O)[C@H](CC(C)C)NC(=O)[C@H](CC(C)C)NC(=O)OCc1ccccc1", "note": "[MG-132, N-[(phenylmethoxy)carbonyl]-leucyl-N-[(1S)-1-formyl-3-methylbutyl]-L-leucinamide] (Cbz-Leu-Leu-Leu-aldehyde)", "values": [
      {"measurement": "level of apoptosis (annexin V-positive, propidium iodide-negative cells)", "setting": "adherent HT-29 cells", "value": "relatively greater for MG-132 than BAY 11-7085; also recorded: caused a greater increase in apoptosis"},
      {"measurement": "induction of apoptosis of HT-29 cells during readhesion", "setting": "[3]", "value": "more potently induced apoptosis"},
      {"measurement": "cleaved PARP in cells that remained adherent", "setting": "HT-29 cells [4]", "value": "only a small increase in cleaved PARP"},
      {"measurement": "cleaved PARP in nonadherent cells", "setting": "HT-29 cells [4]", "value": "large increase in cleaved PARP"},
      {"measurement": "cleaved PARP in cells that remained adherent", "setting": "HCT-116 cells", "value": "only a small increase in cleaved PARP"},
      {"measurement": "cleaved PARP in non-adherent cells", "setting": "HCT-116 cells", "value": "large increase in cleaved PARP"}
    ]},
    {"molecule": "CCc1ccc(CCOc2ccc(CC3SC(=O)NC3=O)cc2)nc1", "note": "(stereo not drawn) [pioglitazone]", "values": [
      {"measurement": "Cmax", "setting": "[5]", "value": 2500, "unit": "nM"}
    ]},
    {"molecule": "soluble RANK: soluble Receptor Activator of NF-κB, inhibits ligand-dependent RANK activation (protein, UniProt Q9Y6Q6 30-212, looked up, extracellular domain) extracellular domain: IAPPCTSEKHYEHLGRCCNKCEPGKYMSSKCTTTSDSVCLPCGPDEYLDSWNEEDKCLLHKVCDTGKALVAVVAGNSTTPRRCACTAGYHWSQDCECCRRNTECAPGLGAQHPLQLNKDTVCKPCLAGYFSDAFSSTDKCRPWTNCTFLGKRVEHHGTEKSDAVCSSSLPARKPPNEPHVYLP", "values": [
      {"measurement": "activation of NF-κB", "setting": "RANK", "value": "significantly reduced the activation of NF-κB"}
    ]}
  ]
}
